For this assay, the target named is human TrkA protein (Homo sapiens (Human), UniProt P04629). As to the kind of experiment: TrkA LanthaScreen Eu Kinase Binding Assay (binding activity for human TrkA protein). The settings on record: TrkA enzyme, Kinase Tracer 236, TR-FRET, 60 minutes at room temperature. How it is done:
(Pharmacological Experimental Example 1): Evaluation of Binding Activity for Human TrkA Protein
Measurement was carried out using TrkA LanthaScreen (registered trademark) Eu Kinase Binding Assay (ThermoFisher SCIENTIFIC). To a 384 well plate (Corning), 2.5 μL of the test compound having various concentrations and diluted with Kinase buffer (ThermoFisher SCIENTIFIC) and 2.5 μL of 15 nM TrkA enzyme (ThermoFisher SCIENTIFIC) were added. Moreover, 5 μL of 3 nM Eu-anti-His Tag antibody (ThermoFisher SCIENTIFIC) and 5 μL of 30 nM Kinase (registered trademark) Tracer 236 (ThermoFisher SCIENTIFIC) were added, followed by reaction at room temperature for 60 minutes. After the reaction, the fluorescence intensity of Europium (Emission wavelength 615 nm) and TR-FRET (Emission wavelength 665 nm) with an excitation wavelength of 340 nm were measured with EnVision 2100 (PerkinElmer) to calculate the fluorescence ratio as the amount of the test compound and the TrkA enzyme bonded. The inhibitory activity (IC50 value) of each test compound was calculated with the fluorescence ratio of the well to which a solvent was added instead of the test compound being 0% and the fluorescence ratio of the well without addition of the TrkA protein being 100%.
In Table 1, Compounds 1 to 62 respectively mean Compounds 1 to 62 synthesized in accordance with Examples 1 to 62 described later.

pIC50: −log10 of the molar value. Some results are limits rather than exact numbers.

human TrkA protein, sequence (P04629 33-796): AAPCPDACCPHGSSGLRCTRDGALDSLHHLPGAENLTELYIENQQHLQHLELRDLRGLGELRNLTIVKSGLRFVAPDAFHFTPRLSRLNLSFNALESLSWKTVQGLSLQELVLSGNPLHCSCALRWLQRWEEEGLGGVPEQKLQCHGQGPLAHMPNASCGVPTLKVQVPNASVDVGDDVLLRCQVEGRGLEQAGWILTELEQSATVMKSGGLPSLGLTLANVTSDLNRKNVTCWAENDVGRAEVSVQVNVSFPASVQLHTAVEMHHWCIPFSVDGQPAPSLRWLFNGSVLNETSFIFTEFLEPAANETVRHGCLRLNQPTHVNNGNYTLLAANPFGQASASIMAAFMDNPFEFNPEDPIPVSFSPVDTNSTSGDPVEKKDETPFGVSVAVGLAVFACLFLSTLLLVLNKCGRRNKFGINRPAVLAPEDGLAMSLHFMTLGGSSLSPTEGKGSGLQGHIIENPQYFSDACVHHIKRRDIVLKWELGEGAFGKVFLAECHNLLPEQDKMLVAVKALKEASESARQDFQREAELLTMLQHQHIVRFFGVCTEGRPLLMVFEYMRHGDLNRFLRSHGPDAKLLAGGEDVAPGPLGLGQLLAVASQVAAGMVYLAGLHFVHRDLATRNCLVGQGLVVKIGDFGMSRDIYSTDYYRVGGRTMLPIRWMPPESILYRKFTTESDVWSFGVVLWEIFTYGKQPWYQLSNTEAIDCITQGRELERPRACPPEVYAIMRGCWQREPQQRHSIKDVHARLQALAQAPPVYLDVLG

Compound `Cc1cc(NC(=O)N[C@@H]2c3cc(F)c(F)cc3C(C)(C)C[C@H]2O)c(-c2ccccc2)nc1-c1ccnc(CO)c1` (racemic) [Compound 56, rac-1-((1R,2R)-6,7-difluoro-2-hydroxy-4,4-dimethyl-1,2,3,4-tetrahydronaphthalen-1-yl)-3-(2′-(hydroxymethyl)-3-methyl-6-phenyl-[2,4′-bipyridin]-5-yl)urea] showed a pIC50 of at least 7.30.

The record behind these values is patent publication US10669239B2, “Tetrahydronaphthyl urea derivative” (MOCHIDA PHARMACEUTICAL CO., LTD., priority 2017, dated 2020).
